Results published in patent publication US11059848B2, “Artemisinic acid glycoconjugate compounds, process for preparation and use thereof” (Council of Scientific and Industrial Research, priority 2018, dated 2021).
Read-outs that look alike come from different tables or passages of the source.

Tests used:
[1] = system: MCF7 (breast cancer cell line); assay: Growth inhibition by MTT cytotoxicity assay, in vitro anticancer activity; type: cell-based
Experimental: Compounds were dissolved in DMSO (Sigma) to prepare 50 mM concentrations stock solutions. All the further dilutions were also made in DMSO. During the treatment, the final concentration of DMSO was maintained <[…].
Breast cancer cell line MCF7, maintained at NCCS, a national resource for providing cell lines, was grown in DMEM (GIBCO), MBA-MB-231 in RPMI (GIBCO) with 10% FBS, 100 U/mL penicillin and 100 μg/mL streptomycin and MCF10A in DMEM/F12 (Gibco) containing, horse Serum (10% final), EGF (20 ng/ml), Hydrocortisone ([…]), Cholera Toxin (100 ng/ml), Insulin (10 μg/ml) and Penicillin/Streptomycin mix (1 ml/100 ml) at 37° C. in a humid, 5% CO2 regulated incubator.
The cytotoxic effect of the compounds was determined using MTT (3-(4, 5 dimethylthiazol-2-yl)-2-5 diphenyltetrazolium bromide) assay. Cells were seeded (4×10^3 per well) in 96 well plates. After 24 hours of seeding, cells were exposed with varying concentrations ([…]) of respective compounds for 48 hours in triplicates. Then, MTT solution (20 μL of 5 mg/mL stock for each well of 96 well plate) was added and further incubated for 3.5 hours in humid 5% CO2 incubator. Media containing MTT solution was then replaced by MTT solvent (iso-propanol, HCl and Triton X-100), incubated for 15 min at room temperature with gentle shaking for complete dissolution of Formazan. Absorbance was measured at 570 nm using a Thermo Scientific Multiskan GO Elisa plate reader and IC 50 was calculated by routine methods. All experiments were carried out at least in triplicate, and the percentage of viable cells was calculated as the mean with respect to the controls.

[2] = Homo sapiens, MCF7 breast cancer cell line, MTT, 48 hours exposure, Table 1, read-out: IC50
[3] = MCF7 breast cancer cell line, MTT, 48 hours exposure, table of Example 4, read-out: IC50

SMILES: C=C(C(=O)OCc1cn([C@@H]2O[C@H](COC(C)=O)[C@H](OC(C)=O)[C@H](OC(C)=O)[C@H]2OC(C)=O)nn1)[C@@H]1CC[C@@H](C)[C@@H]2CCC(C)=C[C@@H]21 [KTK-AA-2, (2R,3S,4S,5R,6R)-2-(acetoxymethyl)-6-(4-(((2-((1R,4R,4aS,8aR)-4,7-dimethyl-1,2,3,4,4a,5,6,8a-octahydronaphthalen-1-yl)acryloyl)oxy)methyl)-1H-1,2,3-triazol-1-yl)tetrahydro-2H-pyran-3,4,5-triyl triacetate]
- IC50 [1, 2]: > 100 µM
- IC50 [1, 3]: > 100 µM

SMILES: C=C(C(=O)OCc1cn([C@@H]2O[C@H](COC(C)=O)[C@@H](OC(C)=O)[C@H](OC(C)=O)[C@H]2OC(C)=O)nn1)[C@@H]1CC[C@@H](C)[C@@H]2CCC(C)=C[C@@H]21 [KTK-AA-4, (2R,3R,4S,5R,6R)-2-(acetoxymethyl)-6-(4-(((2-((1R,4R,4aS,8aR)-4,7-dimethyl-1,2,3,4,4a,5,6,8a-octahydronaphthalen-1-yl)acryloyl)oxy)methyl)-1H-1,2,3-triazol-1-yl)tetrahydro-2H-pyran-3,4,5-triyl triacetate]
- IC50 [1, 2]: > 100 µM
- IC50 [1, 3]: > 100 µM

SMILES: C=C(C(=O)OCc1cn([C@@H]2O[C@H](COC(=O)c3ccccc3)[C@H](OC(=O)c3ccccc3)[C@H](OC(=O)c3ccccc3)[C@H]2OC(=O)c2ccccc2)nn1)[C@@H]1CC[C@@H](C)[C@@H]2CCC(C)=C[C@@H]21 [KTK-AA-6, (2R,3S,4S,5R,6R)-2-((benzoyloxy)methyl)-6-(4-(((2-((1R,4R,4aS,8aR)-4,7-dimethyl-1,2,3,4,4a,5,6,8a-octahydronaphthalen-1-yl)acryloyl)oxy)methyl)-1H-1,2,3-triazol-1-yl)tetrahydro-2H-pyran-3,4,5-triyl tribenzoate]
- IC50 [1, 2]: > 100 µM
- IC50 [1, 3]: > 100 µM

SMILES: C=C(C(=O)OCc1cn([C@@H]2O[C@@H](C)[C@H](OC(C)=O)[C@@H](OC(C)=O)[C@H]2OC(C)=O)nn1)[C@@H]1CC[C@@H](C)[C@@H]2CCC(C)=C[C@@H]21 [KTK-AA-7, (2R,3R,4R,5S,6S)-2-(4-(((2-((1R,4R,4aS,8aR)-4,7-Dimethyl-1,2,3,4,4a,5,6,8a-octahydronaphthalen-1-yl)acryloyl)oxy)methyl)-1H-1,2,3-triazol-1-yl)-6-methyltetrahydro-2H-pyran-3,4,5-triyl triacetate]
- IC50 ([1]; Homo sapiens, MCF7, MCF-7 breast cancer cell line, read-out: IC50 value, anticancer activity against MCF-7): 42 µM
- IC50 [1, 2]: 42 ± 2 µM
- IC50 value less when compared with artimisinic acid ([1]; MCF7, reduction of IC50 relative to artimisinic acid): more than 50%
- melting point: 89 to 92 °C

SMILES: C=C(C(=O)O)[C@@H]1CC[C@@H](C)[C@@H]2CCC(C)=C[C@@H]21 [KTK-AA- Artimisinic acid, Artemisinic acid]
- IC50 [1, 2]: > 100 µM
- IC50 [1, 3]: > 100 µM

SMILES: C=C(C(=O)NCc1cn([C@@H]2O[C@H](COC(C)=O)[C@@H](OC(C)=O)[C@H](OC(C)=O)[C@H]2OC(C)=O)nn1)[C@@H]1CC[C@@H](C)[C@@H]2CCC(C)=C[C@@H]21 [KTK-PA-2, (2R,3R,4S,5R,6R)-2-(acetoxymethyl)-6-(4-((2-((1R,4R,4aS,8aR)-4,7-dimethyl-1,2,3,4,4a,5,6,8a-octahydronaphthalen-1-yl)acrylamido)methyl)-1H-1,2,3-triazol-1-yl)tetrahydro-2H-pyran-3,4,5-triyl triacetate]
- IC50 [1, 2]: > 100 µM
- IC50 [1, 3]: > 100 µM

SMILES: C=C(C(=O)NCc1cn([C@@H]2O[C@H](COC(C)=O)[C@H](OC(C)=O)[C@H](OC(C)=O)[C@H]2OC(C)=O)nn1)[C@@H]1CC[C@@H](C)[C@@H]2CCC(C)=C[C@@H]21 [KTK-PA-3, (2R,3S,4S,5R,6R)-2-(acetoxymethyl)-6-(4-((2-((1R,4R,4aS,8aR)-4,7-dimethyl-1,2,3,4,4a,5,6,8a-octahydronaphthalen-1-yl)acrylamido)methyl)-1H-1,2,3-triazol-1-yl)tetrahydro-2H-pyran-3,4,5-triyl triacetate]
- IC50 [1, 2]: > 100 µM
- IC50 [1, 3]: > 100 µM

SMILES: C=C(C(=O)NCc1cn([C@@H]2O[C@H](COC(=O)c3ccccc3)[C@@H](OC(=O)c3ccccc3)[C@H](OC(=O)c3ccccc3)[C@H]2OC(=O)c2ccccc2)nn1)[C@@H]1CC[C@@H](C)[C@@H]2CCC(C)=C[C@@H]21 [KTK-PA-4, (2R,3R,4S,5R,6R)-2-((benzoyloxy)methyl)-6-(4-((2-((1R,4R,4aS,8aR)-4,7-dimethyl-1,2,3,4,4a,5,6,8a-octahydronaphthalen-1-yl)acrylamido)methyl)-1H-1,2,3-triazol-1-yl)tetrahydro-2H-pyran-3,4,5-triyl tribenzoate]
- IC50 [1, 2]: > 100 µM
- IC50 [1, 3]: > 100 µM
